# Experimental data reported in PMC6010071, “Blocking oestradiol synthesis pathways with potent and selective coumarin derivatives” (Journal of Enzyme Inhibition and Medicinal Chemistry, 2018).
# Experiments:
# Assay type in all cases: biochemical
# MAO-B = target: T1, MAO-B (Homo sapiens, UniProt P27338); experiment: MAO-B inhibition, continuous spectrophotometric assay
# T1 construct: purchased Sigma-Aldrich (St. Louis, MO)
# T1 sequence (P27338 1-520): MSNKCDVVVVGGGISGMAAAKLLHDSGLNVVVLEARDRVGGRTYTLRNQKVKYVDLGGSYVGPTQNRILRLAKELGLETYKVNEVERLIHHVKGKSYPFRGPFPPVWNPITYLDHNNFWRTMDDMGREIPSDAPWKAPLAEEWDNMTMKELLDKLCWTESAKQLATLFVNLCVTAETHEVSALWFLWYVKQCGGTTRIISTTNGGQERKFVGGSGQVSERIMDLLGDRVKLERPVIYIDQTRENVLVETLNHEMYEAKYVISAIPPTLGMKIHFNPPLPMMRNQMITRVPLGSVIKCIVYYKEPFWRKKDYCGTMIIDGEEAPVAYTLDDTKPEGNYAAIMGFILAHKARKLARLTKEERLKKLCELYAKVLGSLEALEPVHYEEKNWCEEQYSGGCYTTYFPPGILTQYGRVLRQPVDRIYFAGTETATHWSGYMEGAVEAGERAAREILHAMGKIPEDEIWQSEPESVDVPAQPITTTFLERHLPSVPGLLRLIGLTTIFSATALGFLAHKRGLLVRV
# Protocol: The protocol of continuous spectrophotometric assay by Holt et al. was first used to determine the activity of the proteins. […] The protein was first incubated for 30 min at 37 °C in the chromogenic solution and then the substrate tyramine was introduced at 0.5 mM final plate concentration completing the assay volume. […] The assay should produce absorbance change of ∼0.35[23]. […] These protein concentrations were selected to be used to analyse the molecules 1–9. The analysis conditions followed the above-described assay protocol[23] and the activity of tested molecules was measured at 100 µM for MAO-A and at 10 µM for MAO-B. The analysis was performed as single point measurements and the signal was read by the same instrument at the expected assay maximum indicated by the activity measurements, at 30 min for MAO-A and at 2 h for MAO-B, respectively. […] The observed activity was calculated as inhibition percentage (Table 1).
# [1] = target: T2, Aromatase (CYP19A1), human placental microsomes (Homo sapiens, UniProt P11511); experiment: Aromatase activity, [3H]-H2O release from [3H]-androstenedione; settings: 50 nM [3H]-androstenedione; inhibitor 60–1000 nM; read-out: Aromatase inhibition ∼ pIC50 (converted)
# T2 construct: by using human placental microsomes; from tissue; host or cells: human placental microsomes
# T2 sequence (P11511 1-503): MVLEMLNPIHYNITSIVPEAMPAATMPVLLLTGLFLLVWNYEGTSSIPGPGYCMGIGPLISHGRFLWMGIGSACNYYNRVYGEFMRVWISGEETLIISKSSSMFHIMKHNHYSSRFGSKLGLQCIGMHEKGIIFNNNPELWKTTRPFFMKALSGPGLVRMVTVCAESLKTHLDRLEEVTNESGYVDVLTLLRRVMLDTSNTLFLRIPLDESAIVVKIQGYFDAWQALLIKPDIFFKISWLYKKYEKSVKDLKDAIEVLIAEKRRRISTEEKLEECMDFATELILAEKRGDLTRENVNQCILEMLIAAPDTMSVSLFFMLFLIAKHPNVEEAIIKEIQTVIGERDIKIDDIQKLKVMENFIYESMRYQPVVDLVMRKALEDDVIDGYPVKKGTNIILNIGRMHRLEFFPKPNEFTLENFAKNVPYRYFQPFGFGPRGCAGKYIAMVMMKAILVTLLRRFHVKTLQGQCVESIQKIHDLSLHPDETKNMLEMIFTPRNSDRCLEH
# Protocol: Aromatase (CYP19A1) activity was measured as described previously[22] by using human placental microsomes and 50 nM [3H]-androstenedione as a substrate and inhibitor concentrations in the range of 60–1000 nM. Aromatase activities were measured as released [3H]-H2O in Optiphase Hisafe 2 scintillation liquid (Perkin Elmer, Waltham, MA) with a Wallac 1450 MicroBeta Trilux scintillation counter (Perkin Elmer, Waltham, MA). As a positive control for aromatase inhibition, 1 µM finrozole (generous gift from Olavi Pelkonen, University of Oulu, Finland) was used.
# [2] = target: T3, heterologously expressed human CYP1A2 enzyme (Homo sapiens, UniProt P05177); experiment: CYP1A2 inhibition; settings: read-out: CYP1A2 inhibition ∼ pIC50 (converted)
# T3 construct: purchased Corning Inc., Corning, NY
# T3 sequence (P05177 1-516): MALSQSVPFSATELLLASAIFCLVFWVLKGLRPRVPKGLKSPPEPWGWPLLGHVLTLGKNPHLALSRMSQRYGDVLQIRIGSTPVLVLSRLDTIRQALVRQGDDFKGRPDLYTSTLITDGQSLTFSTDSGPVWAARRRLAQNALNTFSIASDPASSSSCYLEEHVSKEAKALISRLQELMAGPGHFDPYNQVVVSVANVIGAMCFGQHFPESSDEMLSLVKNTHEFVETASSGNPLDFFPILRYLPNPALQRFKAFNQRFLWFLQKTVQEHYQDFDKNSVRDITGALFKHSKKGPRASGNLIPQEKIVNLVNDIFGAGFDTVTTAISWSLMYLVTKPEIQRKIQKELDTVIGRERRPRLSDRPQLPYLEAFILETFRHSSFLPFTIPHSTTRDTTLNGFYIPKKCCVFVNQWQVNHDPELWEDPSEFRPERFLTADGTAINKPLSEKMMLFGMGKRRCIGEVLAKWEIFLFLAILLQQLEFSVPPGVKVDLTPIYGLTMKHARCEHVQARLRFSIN
# Protocol: Inhibition of CYP1A2 activity was determined using commercial heterologously expressed human CYP1A2 enzyme (Corning Inc., Corning, NY) essentially as described previously.
# recombinant human HSD1 = target: T4, recombinant human HSD1 (Homo sapiens, UniProt P14061); experiment: HSD1 inhibition, HPLC assay of [3H]-E1 to [3H]-E2 conversion
# T4 construct: made in house; host or cells: Sf9 insect cells
# T4 sequence (P14061 1-328): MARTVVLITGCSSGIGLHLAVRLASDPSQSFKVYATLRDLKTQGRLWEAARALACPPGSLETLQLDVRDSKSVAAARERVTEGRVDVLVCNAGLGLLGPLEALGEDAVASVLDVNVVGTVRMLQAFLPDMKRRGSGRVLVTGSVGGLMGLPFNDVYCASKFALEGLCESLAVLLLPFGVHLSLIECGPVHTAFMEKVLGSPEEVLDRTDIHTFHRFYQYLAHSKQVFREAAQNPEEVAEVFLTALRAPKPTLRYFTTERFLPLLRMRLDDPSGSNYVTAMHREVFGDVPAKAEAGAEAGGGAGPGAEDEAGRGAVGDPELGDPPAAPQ
# Protocol: The inhibition was determined by HPLC using recombinant human HSD1 and HSD2 proteins as described in a prior study. In short, recombinant human HSD1 and HSD2 were produced in Sf9-insect cells. […] After incubation, the reaction was stopped by addition of […] 10% trichloroacetic acid per sample. […] The ratio of [3H]-E1 converted to [3H]-E2 or vice versa determines the conversion percentage of the samples. Inhibition was measured in three concentrations (100 nM, 1, and 5 µM) in order to follow the progression of inhibition efficiencies. Inhibition efficiencies of the tested inhibitors were calculated by comparing the conversion percentages of the samples including inhibitors with those of conversion controls (without inhibitors).
# recombinant human HSD2 = target: T5, recombinant human HSD2 (Homo sapiens, UniProt P37059); experiment: HSD2 inhibition, HPLC assay of [3H]-E2 to [3H]-E1 conversion
# T5 construct: made in house; host or cells: Sf9 insect cells
# T5 sequence (P37059 1-387): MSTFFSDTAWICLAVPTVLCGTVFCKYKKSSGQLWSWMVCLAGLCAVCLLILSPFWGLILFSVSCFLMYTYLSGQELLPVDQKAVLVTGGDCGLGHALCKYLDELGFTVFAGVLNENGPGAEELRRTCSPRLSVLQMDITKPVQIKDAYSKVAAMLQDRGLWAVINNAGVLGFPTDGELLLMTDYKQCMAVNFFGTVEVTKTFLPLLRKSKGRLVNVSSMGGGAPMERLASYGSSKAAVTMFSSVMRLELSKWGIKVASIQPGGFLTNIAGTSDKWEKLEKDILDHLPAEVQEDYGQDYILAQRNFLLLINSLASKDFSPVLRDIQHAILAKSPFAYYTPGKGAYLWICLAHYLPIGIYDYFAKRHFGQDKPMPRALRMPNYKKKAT
# Protocol: The inhibition was determined by HPLC using recombinant human HSD1 and HSD2 proteins as described in a prior study. In short, recombinant human HSD1 and HSD2 were produced in Sf9-insect cells. […]. After incubation, the reaction was stopped by addition of […] 10% trichloroacetic acid per sample. After incubation the substrate and the product of enzymatic conversion [3H]-E1 and [3H]-E2 were separated and quantified by HPLC (Alliance 2790, Waters, Milford, MA) connected to an online counter (Packard Flow Scintillation Analyser; Perkin Elmer Inc., Waltham, […]). The ratio of [3H]-E1 converted to [3H]-E2 or vice versa determines the conversion percentage of the samples. Inhibition was measured in three concentrations (100 nM, 1, and 5 µM) in order to follow the progression of inhibition efficiencies. Inhibition efficiencies of the tested inhibitors were calculated by comparing the conversion percentages of the samples including inhibitors with those of conversion controls (without inhibitors).
MAO-B inhibition (in words) (MAO-B),"inhibition at 10 µM (MAO-B; 10 µM, single point, read at 2 h, read-out: MAO-B inhibition at 10 µM) [%]",IC50 [1] [nM],IC50 [2] [nM],HSD1 inhibition (in words) (recombinant human HSD1),"inhibition at 0.1 µM (recombinant human HSD1; 100 nM, average of two measurements, except for compounds 8 and 9, read-out: HSD1 inhibition at 100 nM) [%]","inhibition at 1 µM (recombinant human HSD1; 1 µM, average of three measurements, except for compounds 8 and 9, read-out: HSD1 inhibition at 1 µM) [%]","IC50 (recombinant human HSD1; estimated from three measurements at 1 µM, average ± standard error, read-out: HSD1 inhibition ∼ pIC50 (converted)) [nM]","inhibition at 0.1 µM (recombinant human HSD2; 100 nM, control) [%]",inhibition at 1 µM (recombinant human HSD2; read-out: HSD2 inhibition at 1 µM) [%],Compound
blocking neither HSD1 nor MAO-B,11,77.6,115,blocking neither HSD1 nor MAO-B,1,1,> 5010,,,"O=c1oc2ccccc2cc1-n1ccnc1 [Compound 10, 3–(1H-imidazol-1-yl)-2H-chromen-2-one]"
,,,,,,,,62.3,100,"O=c1c(Oc2ccc(Cl)cc2)coc2cc(O)cc(O)c12 [HM2001, 3–(4-Chlorophenoxy)-5,7-dihydroxychromen-4-one, reference compound]"
